Experimental data: patent US20160000734A1, “METHOD AND COMPOSITIONS OF CIVAMIDE TO TREAT DISEASE OF THE INTESTINES” (WINSTON LABORATORIES, INC., priority 2010, published 2016)
Read-outs that look alike come from different tables or passages of the source.

What was measured:
[1] = rodents; cited from earlier work
[2] = cited from earlier work; for efficacy in painful, inflammatory or allergic disorders: compared with capsaicin compositions; for localized burning and stinging / local adverse effects: compared with capsaicin
normal volunteers = assay: Abdominal distress / gastrointestinal discomfort after oral capsules in normal human volunteers; assay type: in vivo; settings: soft gel capsules (not enteric coated)
hot-plate animal model = settings: oral civamide; cited from earlier work
Chung animal model = settings: oral civamide; cited from earlier work
Formalin animal model = settings: oral civamide; cited from earlier work
[3] = dogs; cited from earlier work

## COc1cc(CNC(=O)CCCC/C=C\C(C)C)ccc1O [civamide, cis-8-methyl-N-vanillyl-6-nonenamide]
[1]
  absorption of an administered oral dose: 8-12%
[2]
  efficacy in painful, inflammatory or allergic disorders: comparable in efficacy
  localized burning and stinging / local adverse effects: significantly less local adverse effects
[2]; listed as Civamide
  efficacy in painful, inflammatory or allergic disorders: effective
  localized burning and stinging / local adverse effects: significantly less of the localized burning and stinging
Normal volunteers
  abdominal distress / local burning and discomfort in the gastrointestinal tract: more local burning and discomfort in the gastrointestinal tract than comparable dosages of capsaicin
hot-plate animal model
  analgesia: effective analgesia
Chung animal model
  analgesia: effective analgesia
Formalin animal model
  analgesia: effective analgesia
[3]
  absorption of an administered oral dose: 8-12%
